# According to ChEMBL document CHEMBL1139159, “Synthesis and anti-HIV-1 activities of novel podophyllotoxin derivatives” (Bioorg Med Chem Lett, 2007):
# What was measured:
# [1] = tested on: Human immunodeficiency virus 1; assay: Antiviral activity against HIV1 in C8166 cells assessed as inhibition of syncytia formation; format: functional, organism-based; conditions: Human immunodeficiency virus 1, C8166
# C8166 = assay: Cytotoxicity against C8166 cells assessed as reduction in total cell number; format: cell-based; conditions: Homo sapiens
# [2] = Therapeutic index, IC50 for C8166 cells to EC50 for HIV1; format: cell-based; conditions: human, read-out: Ratio IC50/EC50
smiles,measurement,setting,value
COc1cc2c(cc1OC)[C@@H](C#N)[C@H]1COC(=O)[C@@H]1[C@@H]2c1cc(OC)c(OC)c(OC)c1,EC50,[1],1.05 µM
same,IC50,C8166,138 µM
same,selectivity ratio,[2],131
COc1cc([C@@H]2c3cc4c(cc3[C@H](NC(=O)OC[C@@H]3C=C[C@H](n5cc(C)c(=O)[nH]c5=O)O3)[C@H]3COC(=O)[C@H]23)OCO4)cc(OC)c1OC,EC50,[1],0.24 µM
same,IC50,C8166,3.39 µM
same,selectivity ratio,[2],14.4
COc1cc([C@@H]2c3cc4c(cc3[C@H](NC(=O)OC[C@@H]3C=C[C@H](n5cc(C)c(=O)[nH]c5=O)O3)[C@H]3COC(=O)[C@H]23)OCO4)cc(OC)c1O,EC50,[1],0.29 µM
same,IC50,C8166,104 µM
same,selectivity ratio,[2],355
COc1cc([C@@H]2c3cc4c(cc3[C@H](O)[C@H]3COC(=O)[C@H]23)OCO4)cc(OC)c1OC [PODOFILOX],EC50,[1],0.0029 µM
same,IC50,C8166,< 0.15 µM
same,selectivity ratio,[2],53.3
COc1cc2c(cc1OC)[C@@H](C(=O)O)[C@H]1COC(=O)[C@@H]1[C@@H]2c1cc(OC)c(OC)c(OC)c1,EC50,[1],46.9 µM
same,IC50,C8166,> 437 µM
same,selectivity ratio,[2],> 9.31
COc1cc2c(cc1OC)[C@@H](NC(=O)OC[C@@H]1C=C[C@H](n3cc(C)c(=O)[nH]c3=O)O1)[C@H]1COC(=O)[C@@H]1[C@@H]2c1cc(OC)c(OC)c(OC)c1,EC50,[1],4.39 µM
same,IC50,C8166,> 295 µM
same,selectivity ratio,[2],> 67.1
COc1cc([C@@H]2c3cc4c(cc3[C@@H](NC(=O)OC[C@@H]3C=C[C@H](n5cc(C)c(=O)[nH]c5=O)O3)[C@H]3COC(=O)[C@H]23)OCO4)cc(OC)c1OC,EC50,[1],5.46 µM
same,IC50,C8166,68.2 µM
same,selectivity ratio,[2],12.5
COc1cc([C@@H]2c3cc4c(cc3[C@@H](NC(=O)OC[C@@H]3C=C[C@H](n5cc(C)c(=O)[nH]c5=O)O3)[C@H]3COC(=O)[C@H]23)OCO4)cc(OC)c1O,EC50,[1],0.17 µM
same,IC50,C8166,79.1 µM
same,selectivity ratio,[2],467
Cc1cn([C@H]2C[C@H](N=[N+]=N)[C@@H](CO)O2)c(=O)[nH]c1=O,EC50,[1],0.009 µM
same,IC50,C8166,500 µM
same,selectivity ratio,[2],55600
